From US20250154686A1, “COMPOUND LIBRARY” (CHUGAI SEIYAKU KABUSHIKI KAISHA, priority 2021, published 2025) come the findings set out here.

The assay deals with T1, Bcl-2 protein (Recombinant Human Bcl-2 Protein) (Homo sapiens, UniProt P10415).
T1 construct: purchased Novus Biologicals NBP2-34889
Nature of the assay: AS-MS evaluation of binding of the Example 4 mixture library (1200 compounds/well) to Bcl-2, ASMS ratio (%). The essentials: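 A pooled 1200-compound mixture (20 nM each final) was incubated with 20 μM recombinant human Bcl-2 in pH 7.4 Tris-HCl buffer with NaCl, Tween-20 and DTT for 1 h at 23° C. in the dark. Bound ligands were separated by spin-column SEC and measured by reverse-phase LC/MS; ASMS ratio (%) was calculated against protein-free unfiltered standard and protein-free SEC blank.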

Where [1] appears, read: replicate n = 1, mixture library, value belongs to the MS peak assigned to the compound.
[2] abbreviates: replicate n = 2, mixture library, value belongs to the MS peak assigned to the compound.
The mark [3] stands for this setting: AS-MS, Example 4 mixture library, Bcl-2, replicate n = 1.
Where [4] appears, read: AS-MS, Example 4 mixture library, Bcl-2, replicate n = 2.
The mark [5] stands for this setting: AS-MS, mixture of 1200 compounds/well, Bcl-2 protein, replicate n = 1.
[6] abbreviates: AS-MS, mixture of 1200 compounds/well, Bcl-2 protein, replicate n = 2.

T1 sequence (P10415 whole entry): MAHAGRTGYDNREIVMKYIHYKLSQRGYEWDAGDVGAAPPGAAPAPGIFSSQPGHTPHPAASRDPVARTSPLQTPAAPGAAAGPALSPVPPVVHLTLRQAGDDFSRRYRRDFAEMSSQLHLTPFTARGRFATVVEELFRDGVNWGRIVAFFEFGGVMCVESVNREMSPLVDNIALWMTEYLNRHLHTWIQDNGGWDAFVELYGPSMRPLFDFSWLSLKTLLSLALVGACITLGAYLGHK

Turning to `CCOc1cccc(-c2cc(CN3CCN(c4ccc(C(=O)NS(=O)(=O)C(C)(C)C)cc4)CC3)cc(OC(F)(F)F)c2)c1` [Compound B2L063-01, N-tert-Butylsulfonyl-4-[4-[[3-(3-ethoxyphenyl)-5-(trifluoromethoxy)phenyl]methyl]piperazin-1-yl]benzamide], under setting [1], the “ASMS ratio (%) n = 1” value turned out to be 0.0%. Besides, the “ASMS ratio (%) n = 2” value under setting [2] stood at 0.0%.

With `CCOc1cccc(-c2cc(CN3CCN(c4ccc(C(=O)NS(=O)(=O)CCC(F)(F)F)cc4)CC3)cc(C(F)(F)F)c2)c1` [Compound B2N061-01], the “ASMS ratio (%) n = 1” value under setting [3] is 0.0%. Also, the “ASMS ratio (%) n = 2” value under setting [4] is listed as 0.0%.

On to `CCCNC(=O)c1ccc(N2CCN(C(=O)c3ccc(-c4cccc(OCC)c4)c4ccccc34)CC2)nn1` [Compound B1M013-01], for which the “ASMS ratio (%) n = 1” value under setting [5] was found to be 2.9%. Moreover, the “ASMS ratio (%) n = 2” value under setting [6] is reported as −1.1%.

With `CCOc1cncc(-c2ccc(CN3CCN(c4ccc(C(=O)NS(=O)(=O)C(C)(C)C)nn4)CC3)cc2C)c1` [Compound B2L074-01], the “ASMS ratio (%) n = 1” value under setting [1] was −1.0%. The “ASMS ratio (%) n = 2” value under setting [2] was 1.4%.

For “4-[4-[[4-(3-Ethoxyphenyl)-3-methylphenyl]methyl]piperazin-1-yl]-N-propylbenzamide [Compound B1M058-01]”, the “ASMS ratio (%) n = 1” value under setting [5] was −1.4%.

Regarding `CCOc1cncc(-c2ccc(CN3CCN(c4ccc(C(=O)NS(=O)(=O)CCC(F)(F)F)cc4)CC3)c(OC)c2)c1` [Compound B2N054-01, 4-[4-[[4-(5-Ethoxypyridin-3-yl)-2-methoxyphenyl]methyl]piperazin-1-yl]-N-(3,3,3-trifluoropropylsulfonyl)benzamide], the “ASMS ratio (%) n = 1” value under setting [3] was found to be 0.0%. For the same compound, under setting [4], the “ASMS ratio (%) n = 2” value turned out to be 0.0%.

For `CCOc1cccc(-c2cc(CN3CCN(c4ccc(C(=O)NS(=O)(=O)c5ccc(NCCSc6ccccc6)c(C(F)(F)F)c5)nn4)CC3)cc(OCC)c2)c1` [Compound B2R081-01], the “ASMS ratio (%) n = 1” value under setting [3] is reported as 21.1%. The “ASMS ratio (%) n = 2” value under setting [4] is given as −8.8%.

Consider `CCOc1cncc(-c2csc(CN3CCN(c4ccc(C(=O)NS(C)(=O)=O)nn4)CC3)c2)c1` [Compound B2I094-01, 6-[4-[[4-(5-Ethoxypyridin-3-yl)thiophen-2-yl]methyl]piperazin-1-yl]-N-methylsulfonylpyridazine-3-carboxamide], for which, under setting [1], the “ASMS ratio (%) n = 1” value stood at 0.0%. Moreover, under setting [2], the “ASMS ratio (%) n = 2” value is given as 0.0%.

Turning to `CCOc1cncc(-c2cc(CN3CCN(c4ccc(C(=O)NS(=O)(=O)c5ccc(NCCSc6ccccc6)c(C(F)(F)F)c5)cc4)CC3)cc(OCC)c2)c1` [Compound B2R056-01, 4-[4-[[3-Ethoxy-5-(5-ethoxypyridin-3-yl)phenyl]methyl]piperazin-1-yl]-N-[4-(2-phenylsulfanylethylamino)-3-(trifluoromethyl)phenyl]sulfonylbenzamide], under setting [4], the “ASMS ratio (%) n = 2” value is given as −63.9%.

Take `CCOc1cncc(C#Cc2ccccc2C(=O)N2CCN(c3ccc(C(=O)NS(=O)(=O)c4ccc(NCCSc5ccccc5)c(C(F)(F)F)c4)cc3)CC2)c1` [Compound B2R030-01, 4-[4-[2-[2-(5-Ethoxypyridin-3-yl)ethynyl]benzoyl]piperazin-1-yl]-N-[4-(2-phenylsulfanylethylamino)-3-(trifluoromethyl)phenyl]sulfonylbenzamide]: the “ASMS ratio (%) n = 1” value under setting [3] amounted to 0.0%. The “ASMS ratio (%) n = 2” value under setting [4] turned out to be 4.8%.

Consider `CCOc1cncc(-c2ccccc2CCC(=O)N2CCN(c3ccc(C(=O)NS(=O)(=O)CCC(F)(F)F)cc3)CC2)c1` [Compound B2N034-01, 4-[4-[3-[2-(5-Ethoxypyridin-3-yl)phenyl]propanoyl]piperazin-1-yl]-N-(3,3,3-trifluoropropylsulfonyl)benzamide], for which, under setting [3], the “ASMS ratio (%) n = 1” value is −0.2%. The “ASMS ratio (%) n = 2” value under setting [4] stood at 1.0%.

Consider `CCOc1cncc(-c2cc(OC)c(CN3CCN(c4ccc(C(=O)NS(=O)(=O)c5ccc(NCCSc6ccccc6)c(C(F)(F)F)c5)cc4)CC3)c(OC)c2)c1` [Compound B2R060-01, 4-[4-[[4-(5-Ethoxypyridin-3-yl)-2,6-dimethoxyphenyl]methyl]piperazin-1-yl]-N-[4-(2-phenylsulfanylethylamino)-3-(trifluoromethyl)phenyl]sulfonylbenzamide], for which the “ASMS ratio (%) n = 1” value under setting [3] is given as 3.9%. In addition, under setting [4], the “ASMS ratio (%) n = 2” value is recorded as 0.0%.

As to `CCOc1cccc(C#Cc2cncc(C(=O)N3CCN(c4ccc(C(=O)NS(=O)(=O)c5ccc(NCCSc6ccccc6)c(C(F)(F)F)c5)nn4)CC3)c2)c1` [Compound B2R009-01, 6-[4-[5-[2-(3-Ethoxyphenyl)ethynyl]pyridine-3-carbonyl]piperazin-1-yl]-N-[4-(2-phenylsulfanylethylamino)-3-(trifluoromethyl)phenyl]sulfonylpyridazine-3-carboxamide], the “ASMS ratio (%) n = 1” value under setting [3] was determined as 0.0%. Besides, under setting [4], the “ASMS ratio (%) n = 2” value is reported as 19.5%.

Regarding `CCOc1cccc(-c2cc(OC)c(CN3CCN(c4ccc(C(=O)NS(C)(=O)=O)nn4)CC3)c(OC)c2)c1` [Compound B2I085-01, 6-[4-[[4-(3-Ethoxyphenyl)-2,6-dimethoxyphenyl]methyl]piperazin-1-yl]-N-methylsulfonylpyridazine-3-carboxamide], the “ASMS ratio (%) n = 1” value under setting [1] stood at 0.0%. Moreover, the “ASMS ratio (%) n = 2” value under setting [2] is recorded as 0.0%.

Regarding `CCOc1cccc(-c2cc(CN3CCN(c4ccc(C(=O)NS(=O)(=O)c5ccc(NCCSc6ccccc6)c(C(F)(F)F)c5)cc4)CC3)cc(C(F)(F)F)c2)c1` [Compound B2R061-01, 4-[4-[[3-(3-Ethoxyphenyl)-5-(trifluoromethyl)phenyl]methyl]piperazin-1-yl]-N-[4-(2-phenylsulfanylethylamino)-3-(trifluoromethyl)phenyl]sulfonylbenzamide], the “ASMS ratio (%) n = 1” value under setting [3] came out at 9.1%. For the same compound, the “ASMS ratio (%) n = 2” value under setting [4] is recorded as −6.0%.

Consider `CCCNC(=O)c1ccc(N2CCN(Cc3cc(-c4cncc(OCC)c4)cs3)CC2)nn1` [Compound B1M094-01], for which the “ASMS ratio (%) n = 1” value under setting [5] is −1.5%. Besides, the “ASMS ratio (%) n = 2” value under setting [6] is −2.1%.

Take `CCOc1cccc(-c2ccc(C(=O)N3CCN(c4ccc(C(=O)NS(=O)(=O)c5ccc(NCCSc6ccccc6)c(C(F)(F)F)c5)nn4)CC3)c3ccccc23)c1` [Compound B2R013-01, 6-[4-[4-(3-Ethoxyphenyl)naphthalene-1-carbonyl]piperazin-1-yl]-N-[4-(2-phenylsulfanylethylamino)-3-(trifluoromethyl)phenyl]sulfonylpyridazine-3-carboxamide]: the “ASMS ratio (%) n = 1” value under setting [3] came to 7.5%. Also, the “ASMS ratio (%) n = 2” value under setting [4] came out at 7.7%.

Turning to `CCOc1cncc(-c2ccc(C(=O)N3CCN(c4ccc(C(=O)NS(=O)(=O)CCC(F)(F)F)nn4)CC3)cc2C)c1` [Compound B2N004-01, 6-[4-[4-(5-Ethoxypyridin-3-yl)-3-methylbenzoyl]piperazin-1-yl]-N-(3,3,3-trifluoropropylsulfonyl)pyridazine-3-carboxamide], the “ASMS ratio (%) n = 1” value under setting [3] was 1.2%. Also, the “ASMS ratio (%) n = 2” value under setting [4] is listed as −2.0%.

For the compound `CCOc1cccc(-c2cc(CN3CCN(c4ccc(C(=O)NS(C)(=O)=O)nn4)CC3)cc(C(F)(F)F)c2)c1` [Compound B2I087-01, 6-[4-[[3-(3-Ethoxyphenyl)-5-(trifluoromethyl)phenyl]methyl]piperazin-1-yl]-N-methylsulfonylpyridazine-3-carboxamide], under setting [1], the “ASMS ratio (%) n = 1” value came out at 1.3%. For the same compound, the “ASMS ratio (%) n = 2” value under setting [2] is −0.9%.

`CCOc1cncc(-c2cc(CN3CCN(c4ccc(C(=O)NS(=O)(=O)CCC(F)(F)F)cc4)CC3)cc(C(F)(F)F)c2)c1` [Compound B2N062-01, 4-[4-[[3-(5-Ethoxypyridin-3-yl)-5-(trifluoromethyl)phenyl]methyl]piperazin-1-yl]-N-(3,3,3-trifluoropropylsulfonyl)benzamide]: under setting [3], the “ASMS ratio (%) n = 1” value amounted to 0.0%. Besides, under setting [4], the “ASMS ratio (%) n = 2” value is 0.0%.

For `CCOc1cncc(-c2cc(C(=O)N3CCN(c4ccc(C(=O)NS(=O)(=O)C(C)(C)C)nn4)CC3)cc(C(C)(C)C)c2)c1` [Compound B2L016-01, 6-[4-[3-tert-Butyl-5-(5-ethoxypyridin-3-yl)benzoyl]piperazin-1-yl]-N-tert-butylsulfonylpyridazine-3-carboxamide], the “ASMS ratio (%) n = 1” value under setting [1] is reported as 0.0%. Besides, under setting [2], the “ASMS ratio (%) n = 2” value is −5.4%.

Turning to `CCOc1cncc(-c2ccc(CN3CCN(c4ccc(C(=O)NS(=O)(=O)CCC(F)(F)F)nn4)CC3)c3ccccc23)c1` [Compound B2N092-01, 6-[4-[[4-(5-Ethoxypyridin-3-yl)naphthalen-1-yl]methyl]piperazin-1-yl]-N-(3,3,3-trifluoropropylsulfonyl)pyridazine-3-carboxamide], under setting [3], the “ASMS ratio (%) n = 1” value was determined as 0.0%. Besides, the “ASMS ratio (%) n = 2” value under setting [4] amounted to 0.0%.

On to `CCOc1cncc(-c2ccc(C(=O)N3CCN(c4ccc(C(=O)NS(=O)(=O)C(C)(C)C)cc4)CC3)cc2F)c1` [Compound B2L028-01, N-tert-Butylsulfonyl-4-[4-[4-(5-ethoxypyridin-3-yl)-3-fluorobenzoyl]piperazin-1-yl]benzamide], for which the “ASMS ratio (%) n = 1” value under setting [1] amounted to 0.0%. Further, the “ASMS ratio (%) n = 2” value under setting [2] is reported as 0.0%.

With `CCOc1cncc(C#Cc2cc(C(=O)N3CCN(c4ccc(C(=O)NS(=O)(=O)CCC(F)(F)F)nn4)CC3)cc(C(F)(F)F)c2)c1` [Compound B2N020-01, 6-[4-[3-[2-(5-Ethoxypyridin-3-yl)ethynyl]-5-(trifluoromethyl)benzoyl]piperazin-1-yl]-N-(3,3,3-trifluoropropylsulfonyl)pyridazine-3-carboxamide], the “ASMS ratio (%) n = 1” value under setting [3] is listed as 0.0%. In addition, the “ASMS ratio (%) n = 2” value under setting [4] turned out to be 0.0%.
